{
  "source": "patent US20260335294A1",
  "about": "“TREATING CONGENITAL DISORDERS OF GLYCOSYLATION” (Mayo Foundation for Medical Education and Research, priority 2022, published 2026)",
  "key": {"[1]": {"tested_on": "pmm2 mutant zebrafish", "assay": "Metabolomic profiling of zebrafish treated with epalrestat", "type": "in vivo", "conditions": "5 dpf embryos, single dose 10 μM or 40 μM, 24 hours", "experimental": "Animals were maintained according to standard protocols. The zebrafish strains were obtained from the Zebrafish International Resource Center (ZIRC, Eugene, OR). Pmm2sa10150 mutant zebrafish were established as described elsewhere (Klaver et al., JCI Insight, 6(24):e153474 (2021)).\n10 embryos per sample were homogenized by sonication in extraction buffer (80% MeOH, IS). The metabolites were then precipitated at −80 °C overnight, after which the samples were centrifuged at 15,000 rpm, 20 minutes, 4 °C. Next, the supernatant was transferred to a fresh Eppendorf tube. The samples were centrifuged again at 15,000 rpm, 20 minutes, 4 °C to remove any leftover impurities and transferred to a fresh MS vial. Finally, the samples were analyzed by LC/MS.\nFibroblasts were plated in 6-well plates for LC/MS and T75 flasks for GC/MS analysis as described above. After 24 hours, medium was removed and cells washed with PBS. Then, DMEM containing 5.5 mM glucose, 2 mM glutamine, and 10% dialyzed FBS was added. Epalrestat was freshly prepared and fibroblasts were supplemented with 10 μM epalrestat daily. After 48 hours media was changed, and 48 hours after that, metabolites were extracted and measured by both LC/MS and GC/MS. Zebrafish embryos were genotyped at 2 days post fertilization (dpf), and were treated by adding the epalrestat (solubilized in DMSO) directly into the embryo media at 5 dpf. […]"}, "[2]": {"tested_on": "PMM2-CDG patients", "assay": "Goal attainment scale (GAS) in patients on epalrestat", "type": "in vivo, human", "experimental": "Two patients were started on epalrestat on single patient investigational new drug (IND) (P5 IRB: 19-010017; IND #145262; P6 Protocol PMM2-CDG-001/A). Epalrestat was initiated on the parents' own initiative in the third patient (P7). Two patients were in their second year of epalrestat treatment, while the third, was in the 3rd year of treatment. Physical, neurological, and biochemical examinations were performed in 3 PMM2-CDG patients at baseline, and at every three months after the start of the epalrestat treatment. Patients underwent NPCRS phenotype severity assessment and biological sampling at every visit. Epalrestat (Ono Pharmaceuticals, Osaka, Japan) was taken orally 3 times per day (TID) before meals in a divided dose, with dosage escalation throughout the treatment. The pharmacological profile of epalrestat was as described elsewhere (Ligezka et al, Ann. Neurol., 90(6):887-900 (2021)). The starting dosage in P5 and P6 was 0.8 mg/kg/day, while P7 was started on 0.5 mg/kg/day due to their young age. P7 dosage was increased to 0.8 mg/day after a month, once safety was established. Blood and urine samples were collected routinely. Urine polyols, carbohydrate deficient transferrin (CDT), anti-thrombin III (ATIII), liver enzymes (ALT, AST), and complete blood count (CBC) were performed. Modified Brief Ataxia Rating Scale was used to assess ataxia in the 2 patients (P5, P6; P7 was not eligible for the test due to age). The modified BARS scale included Archimedes spiral test, but not the abnormalities of the ocular pursuit system and the scale range was 0-54. Goal attainment scale (GAS) was administered as described per study protocol (ClinicalTrials.gov Identifier: NCT04199000). Quantification of goal attainment levels is done on a 5-point scale ranging from −2 to +2, with 0 indicating the expected level of goal attainment. Three individual goals were established by each patient (parent) at baseline and the progress was annually assessed. Goals included: walking without assistance (Goal #1 P5, P6), communicating with strangers (Goal #2 P5, P6), independent toilet training (Goal #3 P5), to be able to have a healthy and independent life (Goal #3 P6), to be able to equally play with peers (Goal #1 P7), normalization of laboratory results (liver enzymes) (Goal #2 P7), and improved balance to stand and walk (Goal #3 P7)."}, "[3]": {"tested_on": "pmm2 mutant zebrafish", "assay": "Viability of treated zebrafish", "type": "in vivo"}},
  "data": [
    {"smiles": "CC(/C=C1\\SC(=S)N(CC(=O)O)C1=O)=C\\c1ccccc1", "note": "[epalrestat]", "values": [
      {"measurement": "GDP-mannose level", "setting": "[1]", "result": "increased"},
      {"measurement": "polyol levels", "setting": "[1]", "result": "reduced"},
      {"measurement": "Goal attainment scale, Goal 2 (scale −2 to +2)", "setting": "[2]; P5, 12 months, 1.5 mg/kg day, communicating with strangers, baseline −2", "result": "−1"},
      {"measurement": "Goal attainment scale, Goal 3 (scale −2 to +2)", "setting": "[2]; P5, 12 months, 1.5 mg/kg day, independent toilet training, baseline −2", "result": "−2"},
      {"measurement": "Goal attainment scale, Goal 1 (scale −2 to +2)", "setting": "[2]; P5, 12 months, 1.5 mg/kg day, walking without assistance, baseline −2", "result": "−1"},
      {"measurement": "Goal attainment scale, Goal 2 (scale −2 to +2)", "setting": "[2]; P5, 24 months, 2 mg/kg day, communicating with strangers, baseline −2", "result": "−1"},
      {"measurement": "Goal attainment scale, Goal 3 (scale −2 to +2)", "setting": "[2]; P5, 24 months, 2 mg/kg day, independent toilet training, baseline −2", "result": "−2"},
      {"measurement": "Goal attainment scale, Goal 1 (scale −2 to +2)", "setting": "[2]; P5, 24 months, 2 mg/kg day, walking without assistance, baseline −2", "result": "−1"},
      {"measurement": "Goal attainment scale, Goal 2 (scale −2 to +2)", "setting": "[2]; P6, 12 months, 1.5 mg/kg day, communicating with strangers, baseline −1", "result": "−1"},
      {"measurement": "Goal attainment scale, Goal 3 (scale −2 to +2)", "setting": "[2]; P6, 12 months, 1.5 mg/kg day, healthy and independent life, baseline −2", "result": "−2"},
      {"measurement": "Goal attainment scale, Goal 1 (scale −2 to +2)", "setting": "[2]; P6, 12 months, 1.5 mg/kg day, walking without assistance, baseline −2", "result": "−1"},
      {"measurement": "Goal attainment scale, Goal 1 (scale −2 to +2)", "setting": "[2]; P7, 12 months, 1.5 mg/kg day, equally play with peers, baseline −2", "result": "−2"},
      {"measurement": "Goal attainment scale, Goal 3 (scale −2 to +2)", "setting": "[2]; P7, 12 months, 1.5 mg/kg day, improved balance to stand and walk, baseline −2", "result": "−1"},
      {"measurement": "Goal attainment scale, Goal 2 (scale −2 to +2)", "setting": "[2]; P7, 12 months, 1.5 mg/kg day, normalization of laboratory results (liver enzymes), baseline −2", "result": "−1"},
      {"measurement": "clinical improvement and quality of life (GAS, self-reported)", "setting": "[2]; all patients, words", "result": "all patients self-reported clinical improvement and quality of life improvement"},
      {"measurement": "viability, treated vs untreated", "setting": "[3]", "result": "no significant difference"}
    ]}
  ]
}
